{"source": "patent US20080161258A1", "about": "“Hsp and Supraventricular Arrhythmia” (priority 2004, published 2008)", "key": {"[1]": {"tested_on": "HSP27 and HSP70 expression in HL-1 myocytes", "assay": "HSP expression in paced HL-1 myocytes (Western blot)", "assay_type": "cell-based, mouse", "conditions": "0.1 μM GGA two hours prior to and during pacing, FIG. 3A", "description": "(§1) The HL-1 atrial myocytes, developed from adult mouse atria^29 were obtained from Dr. William Claycomb (Louisiana State University, New Orleans, La., USA) and cultured as described before.^28\nHL-1 myocytes (≧1×10^6 myocytes) were cultured on coverslips and subjected to a 10-fold rate increase (rapid pacing) by electrical field stimulation (5 Hz, 1.5 V/cm field strength; Grass S88 stimulator).^28 Elevation of HSP expression in cultured myocytes was accomplished in 3 ways: (I) by subjection to a modest heat stress at 43° C. for 30 min followed by overnight incubation at 37° C., (II) by incubation with 0.1 μM geranylgeranylacetone (GGA, gift from M. Kawai, Japan) two hours prior to and during pacing and (III) by transfection of pHSP70-YFP or pHSP27 24 hrs prior to pacing.\nFor Western-blot analysis, frozen RAAs and LAAs were used for protein isolation as described previously.^6 For the isolation of proteins from HL-1 myocytes, the cells were lysed by the addition of SDS-PAGE sample buffer followed by sonication before separation on 10% PAA-SDS gels (1.10^5 cells/slot). […] Signals were detected by the ECL-detection method (Amersham, The Netherlands) and quantified by densitometry. […]"}, "[2]": {"tested_on": "HL-1 myocytes", "assay": "Pacing-induced myolysis in HL-1 myocytes (myosin immunofluorescence)", "assay_type": "cell-based, mouse", "excerpt": "as §1\nLipofectamine (Life technologies, The Netherlands) was used for transient transfections according to instructions of the manufacturer. pHSP70-YFP encodes a functional human HSP70 fused to YFP under control of a CMV promoter. pHSP27 encodes human HSP27 under control of CMV promoter. […]\nAfter subjecting HL-1 myocytes to rapid pacing, the cells were fixed for 10 minutes in 100% methanol (−20° C.), dried and blocked in 5% BSA (20 minutes room temperature). […] Images of FITC, YFP or CY3 and DAPI fluorescence were obtained by using a Leica confocal laser-scanning microscope (Leica TCS SP2).\nFor the quantification of the amount of myolysis, at least 5 fields were examined with to a total amount of 250-500 myocytes, and myosin disruption (characteristic for myolysis^12) was scored by three independent observers blinded for the experimental groups. […]"}, "[3]": {"tested_on": "HL-1 cells", "assay": "Calcium transients and cell shortening in tachypaced HL-1 cells", "assay_type": "cell-based, mouse", "description": "In addition to myolysis, we studied the effects of short-term tachypacing of HL-1 cells (3 Hz for 2, 3 and 4 hrs) on Ca^2+ transients (CaTs) and cell shortening (CS) in HL-1 cells, with and without pre-treatment to induce HSP expression: the heat shock stress response inducer geranylgeranylacetone (GGA, 10 μM) or heat shock at 43° C. for 20 minutes (HS) or transient transfection with human HSP27 (pHSP27). In brief, myocytes were field-stimulated with 10-ms twice-threshold strength square-wave pulses. CS was measured with a video edge-detector connected to a charge-coupled device. To record CaTs, myocytes were incubated with indo-1 AM (5-μM) for 5-7 min. Myocytes were then superfused at room temperature for at least 40 min to wash out extracellular indicator and to allow for deesterification. Background and cell autofluorescence were cancelled by zeroing the photomultiplier output in a cell without indo-1 loading. Ultraviolet light from a 100-W mercury arc lamp passing through a 340-nm interference filter (±10 nm bandwidth) was reflected by a dichroic mirror into a ×40 oil-immersion fluor objective for excitation of intracellular indo-1 (excitation beam ˜15 μm diameter). Exposure of the cell to UV light (5-10 of every 30-60 s) was controlled by an electronic shutter (Optikon, model T132) to minimize photobleaching. Emitted light (<550 nm) was reflected into a spectral separator, passed through parallel filters at 400 and 500 nm (+10 nm), detected by matched photomultiplier-tubes (Hamamatsu R2560 HA) and electronically filtered at 60 Hz. The ratio of fluorescence signals (R400/500) was digitized (1 kHz) and used as the index of [Ca^2+]i^(48)."}, "[4]": {"tested_on": "HL-1 cells", "assay": "Calcium current density (ICa++) in paced HL-1 cells", "assay_type": "cell-based, mouse", "conditions": "HL-1 cells paced for 4 h; GGA two hours prior to and during pacing; FIG. 5", "description": "I-V relationships of peak ICα++ in non-paced (CON) and paced (PC) HL-1 cells. ICα++ was recorded using 300-ms voltage steps to between −70 and +70 mV from −80 mV."}, "[5]": {"tested_on": "dogs subjected to atrial tachypacing", "assay": "Atrial tachycardia-induced remodeling in dogs (atrial tachypacing)", "assay_type": "in vivo, dog", "conditions": "ATP 400 bpm for 7 days", "description": "The effect of HSP induction on in vivo AF-promotion was examined studying the effect of GGA on atrial tachycardia-induced remodeling in dogs (49). Dogs were subjected to atrial tachypacing (ATP) at 400 bpm for 7 days in the absence (ATP, n=5) and presence of oral GGA treatment (120 mg/kg/day, n=3), starting 3 days prior to ATP onset and continued throughout ATP. Results were compared to a non-paced control group (NP, n=5 dogs). Mongrel dogs (20 to 37 kg) were anesthetized with ketamine (5.3 mg/kg IV), diazepam (0.25 mg/kg IV), and halothane (1.5%). Unipolar leads were inserted through jugular veins into the right ventricular (RV) apex and right atrial (RA) appendage and connected to pacemakers (Medtronic) in subcutaneous pockets in the neck. A bipolar electrode was inserted into the RA for stimulation and recording during serial electrophysiological study (EPS). AV block was created by radiofrequency ablation to control ventricular response during atrial tachypacing (ATP). The RV pacemaker was programmed to 80 bpm. For open-chest EPS, dogs were anesthetized with morphine (2 mg/kg SC) and α-chloralose (120 mg/kg IV, followed by 29.25 mg·kg^−1·h^−1), and ventilated mechanically. Body temperature was maintained at 37° C., and a femoral artery and both femoral veins were cannulated for pressure monitoring and drug administration. A median sternotomy was performed, and bipolar electrodes were hooked to the RA and left atrial (LA) appendages for recording and stimulation. A programmable stimulator (Digital Cardiovascular Instruments) was used to deliver twice-threshold currents. Five silicon sheets containing 240 bipolar electrodes were sutured onto the atrial surfaces as previously described.^6-8http://circ.ahajournals.org/cgi/content/full/110/16/2313-R7-155347http://circ.ahajournals.org/cgi/content/full/110/16/2313-R8-155347 Atrial effective refractory periods (ERPs) were measured at multiple basic cycle lengths (BCLs) in the RA and LA appendages. AF vulnerability was determined as the percentage of atrial sites at which AF could be induced by single extrastimuli. After 24 hours for recovery, a baseline closed-chest EPS was performed under ketamine/diazepam/isoflurane anesthesia, and then ATP (400 bpm) was initiated. Closed-chest EPS was repeated at day 7 of ATP, and a final open-chest EPS was performed under morphine/α-chloralose anesthesia."}}, "note": "“Also recorded” adds a separate entry of the source."}
{"substance": "geranylgeranylacetone [GGA]", "values": [{"measurement": "HSP27 expression", "setting": "[1]", "result": "substantial elevations; also recorded: induces the expression"}, {"measurement": "HSP70 expression", "setting": "[1]", "result": "substantial elevations; also recorded: induces the expression"}, {"measurement": "Immunofluorescent staining of myosin in paced myocytes", "setting": "[2]; 16 hrs paced HL-1 myocytes, FIG. 3B", "result": "myosin-staining remains diffusely distributed in the cytoplasm"}, {"measurement": "pacing-induced myolysis", "setting": "[2]; HL-1 myocytes, rapid pacing 5 Hz, GGA 0.1 μM two hours prior to and during pacing, or transfection 24 hrs prior to pacing", "result": "significant reduction"}, {"measurement": "pacing-induced CaT and CS reductions", "setting": "[3]; HL-1 cells tachypaced 3 Hz for 2, 3 and 4 hrs, GGA 10 μM or transient transfection with pHSP27", "result": "significantly prevented"}, {"measurement": "reduction of Ca2+ transients (CaT) after pacing", "setting": "[3]; HL-1 cells, 3 Hz, 2 hrs pacing, GGA 10 μM, p=0.01 vs tachypaced without GGA", "result": "2%±6%"}, {"measurement": "reduction of cell-shortening (CS) after pacing", "setting": "[3]; HL-1 cells, 3 Hz, 2 hrs pacing, GGA 10 μM, p=0.03 vs tachypaced without GGA", "result": "11%±3%"}, {"measurement": "pacing-induced reduction of calcium current density (Ica++)", "setting": "[4]", "result": "the reduction was prevented; also recorded: strongly"}, {"measurement": "ATP-induced changes (DAF, ERP, vulnerability)", "setting": "[5]; oral GGA 120 mg/kg/day", "result": "almost completely suppressed"}, {"measurement": "duration of induced AF (DAF)", "setting": "[5]; oral GGA 120 mg/kg/day starting 3 days prior to ATP, p<0.05 vs ATP", "result": "39 ± 15", "unit": "s"}, {"measurement": "atrial effective refractory period (ERP)", "setting": "[5]; oral GGA 120 mg/kg/day, basic cycle length 300 ms, p<0.05 vs ATP", "result": "102 ± 3", "unit": "ms"}, {"measurement": "atrial vulnerability to AF (% of atrial sites in which AF was induced by a single extra stimulus)", "setting": "[5]; oral GGA 120 mg/kg/day, p<0.05 vs ATP", "result": "13±7", "unit": "%"}]}
